Tests used:
Format in all cases: cell-based
Microsporum canis = test: Antifungal activity in vitro, resazurin growth inhibition: Microsporum canis (B68128)
How it was run: (§1)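 Compound dilutions, with 64 μM as the highest in-test level, are spotted onto plates, then an inoculum of 10^3 cfu in RPMI-1640 plus 2% glucose (MOPS, pH 7.0±0.1) is added. Plates are incubated at species-dependent time and temperature, up to a week or more at 27° C. for dermatophytes.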

[1] = system: Trichophyton mentagrophytes; test: Antifungal activity in vitro, resazurin growth inhibition: Trichophyton mentagrophytes (B70554)
How it was run: as §1

Trichophyton rubrum = test: Antifungal activity in vitro, resazurin growth inhibition: Trichophyton rubrum (B68183)
How it was run: as §1

Scedosporium apiospermum = test: Antifungal activity in vitro, resazurin growth inhibition: Scedosporium apiospermum (IHEM3817)
How it was run: (§2)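 Resazurin conversion to fluorescent resorufin (ex 550/em 590 nm) served as the growth readout. Compounds spanned 2- or 4-fold serial dilutions with 64 μM top in-test concentration; inoculum 10^3 cfu per well in MOPS-buffered RPMI-1640 (pH 7.0, 2% glucose). Incubation species-dependent, dermatophytes at 27° C. for ≥1 week.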

Scedosporium prolificans = test: Antifungal activity in vitro, resazurin growth inhibition: Scedosporium prolificans (IHEM21157)
How it was run: as §2

Sporothrix schenkii = test: Antifungal activity in vitro, resazurin growth inhibition: Sporothrix schenkii (B62482)
How it was run: as §2

Aspergillus fumigatus = test: Antifungal activity in vitro, resazurin growth inhibition: Aspergillus fumigatus (B42928)
How it was run: as §2

Candida parapsilosis = test: Antifungal activity in vitro, resazurin growth inhibition: Candida parapsilosis (B66126)
How it was run: as §2

Cryptococcus neoformans = test: Antifungal activity in vitro, resazurin growth inhibition: Cryptococcus neoformans (B66663)
How it was run: as §2

Rhizopus oryzae = test: Antifungal activity in vitro, resazurin growth inhibition: Rhizopus oryzae (IHEM5223)
How it was run: as §2

Rhizomucor miehei = test: Antifungal activity in vitro, resazurin growth inhibition: Rhizomucor miehei (IHEM13391)
How it was run: as §2

Row | Compound | Inf. B: Microsporum canis B68128, pIC50 (Microsporum canis) | Inf. G: Trichophyton mentagrophytes B70554, pIC50 [1] | Inf. C: Trichophyton rubrum B68183, pIC50 (Trichophyton rubrum) | Inf. H: Scedosporium apiospermum IHEM3817, pIC50 (Scedosporium apiospermum) | Inf. I: Scedosporium prolificans IHEM21157, pIC50 (Scedosporium prolificans) | Inf. A: Sporothrix schenkii B62482, pIC50 (Sporothrix schenkii) | Inf. E: Aspergillus fumigatus B42928, pIC50 (Aspergillus fumigatus) | Inf. D: Candida parapsilosis B66126, pIC50 (Candida parapsilosis) | Inf. F: Cryptococcus neoformans B66663, pIC50 (Cryptococcus neoformans) | Inf. J: Rhizopus oryzae IHEM5223, pIC50 (Rhizopus oryzae) | Inf. K: Rhizomucor miehei IHEM13391, pIC50 (Rhizomucor miehei)
1 | Clc1cccc2c1CN=C(c1ccc3ccoc3c1)c1cccn1-2 [Compound 150] | 6.14 | 6.15 | 8.25 | <4.19 | 5.93 | 5.52 | 6.00 | 4.68 | 4.57 | <4.19 | <4.19
2 | Clc1cccc2c1CN=C(c1cc3ccccc3s1)c1cccn1-2 [Compound 165] | 6.19 | 5.86 | 6.70 | <4.19 | 4.46 | 5.12 | 5.28 | <4.19 | 5.81 | <4.19 | <4.19
3 | Cc1cccc2c1CN=C(c1cc3cc(Cl)ccc3o1)c1cccn1-2 [Compound 122] | 6.90 | 5.55 | 6.86 | <4.19 | 4.62 | 5.42 | 5.38 | <4.19 | 4.69 | <4.19 | <4.19
4 | Clc1cc(C2=NCc3c(Cl)cccc3-n3cccc32)cnc1Cl [Compound 79] | 5.72 | 5.76 | 6.33 | 6.12 | 6.28 | <4.19 | 6.63 | 4.69 | <4.19 | <4.19 | <4.19
5 | Cn1ccc2cc(C3=NCc4c(Cl)cc(Cl)cc4-n4cccc43)ccc21 [Compound 107] | 6.31 | 5.44 | 5.92 | 4.90 | 5.48 | 5.16 | 5.06 | 4.87 | 5.53 | <4.19 | <4.19
6 | Cc1ccc2oc(C3=NCc4c(Cl)cccc4-n4cccc43)cc2c1 [Compound 134] | 6.68 | 6.66 | 7.16 | <4.19 | 6.48 | 4.50 | 5.66 | 4.54 | <4.19 | <4.19 | <4.19
7 | Clc1cccc2c1CN=C(c1ccc3scnc3c1)c1cccn1-2 [Compound 188] | 6.20 | 6.05 | 6.64 | 6.29 | 6.24 | <4.19 | 5.56 | 4.90 | 4.98 | <4.19 | 4.42
8 | Clc1cccc2c1CN=C(c1cnc3occc3c1)c1cccn1-2 [Compound 161] | 5.96 | 5.40 | 6.12 | 6.47 | 6.27 | 5.02 | 5.04 | <4.19 | 4.56 | <4.19 | <4.19
9 | CC(F)(F)c1ccc(C2=NCc3c(F)cccc3-n3cccc32)cn1 [Compound 83] | 4.97 | 5.88 | 6.68 | <4.19 | 6.09 | <4.19 | 5.33 | <4.19 | <4.19 | <4.19 | <4.19
10 | Cc1cccc2c1-n1cccc1C(c1cc3ccccc3s1)=NC2 [Compound 164] | 5.86 | 6.29 | 6.51 | 5.66 | 6.44 | 5.40 | 5.70 | 4.97 | 5.85 | <4.19 | 5.15
11 | Cc1cccc2c1CN=C(c1ccc3ncsc3c1)c1cccn1-2 [Compound 183] | 5.85 | 5.99 | 6.68 | <4.49 | 4.96 | 4.77 | 5.26 | 5.31 | 4.49 | <4.49 | <4.49
12 | FC(F)(F)c1ccc(C2=NCc3ccccc3-n3cccc32)cn1 [Compound 87] | 5.97 | 5.18 | 6.54 | <4.19 | 5.71 | <4.19 | 4.94 | <4.19 | <4.19 | <4.19 | <4.19
13 | Fc1cc(F)c2c(c1)-n1cccc1C(c1cc3cc(Cl)cnc3o1)=NC2 [Compound 158] | 5.70 | 5.17 | 5.72 | 4.37 | 6.00 | <4.19 | <4.19 | <4.19 | 5.20 | <4.19 | <4.19
